These results are taken from patent US7230096B2, “Inhibitors against galectins” (priority 2001, dated 2007).

Assay [1] deals with T1, recombinant human galectin-3 (Homo sapiens, UniProt P17931).
T1 construct: made in house; host or cells: Escherichia coli
Briefly: Inhibition of galectin-3 binding to Galα3Galβ4GlcNAcβ-HRP conjugate (galectin-3 coated microwells). To be noted: for IC50: competitive inhibition of Galα3Galβ4GlcNAcβ trisaccharide:HRP conjugate binding to galectin-3 coated microwells, five-fold serial dilutions; for Krel: ratio of IC50 of reference compound 25 and IC50 of the inhibitor. Here is the method:
NMR-spectra were recorded with a Bruker DRX-400 instrument. Chemical shifts are given in ppm, with reference to internal CHCl3 (δ 7.26 ppm) or HDO (δ 4.81 ppm). Chemical shifts and coupling constants were obtained from ^1H-NMR and proton resonances were assigned from COSY experiments. High-resolution FAB mass spectra (HRMS) were recorded with a JEOL SX-120 instrument. MALDI-TOF Spectra were recorded with a Bruker, Biflex instrument. Column chromatography was performed on SiO2 (Matrex, 60 Å, 35–70 μm, Grace Amicon) and TLC was carried out on SiO2 60 F254 (Merck) with detection under UV light and developed with aqueous sulfuric acid. Concentrations were made using rotary evaporation with bath temperature at or below 40° C. CH2Cl2 and CH3CN were dried by distillation from CaH2. Pyridine was dried over 4 Å molecular sieves. DMF was distilled and dried over 4 Å molecular sieves. MeOH and EtOH were dried over 3 Å molecular sieves. Microwell plates were from Nalge Nunc International (Nunc-immuno plate, maxisorp surface). PBS containing 0.05% Tween 20 is abbreviated PBS-T and PBS-T containing 1% BSA is abbreviated PBSA-T. Recombinant human galectin-3 was produced in Escherichia coli and purified as previously described (S. M. Massa et al, 1993). […] Microwell plates were developed with a TMB-peroxidase substrate kit (BioRad 172–1066) according to the manufacturers recommendations.
The compounds prepared above (12–24) were tested for their ability to inhibiting the binding of galectin-3 to a Galα3Galβ4GlcNAcβ trisaccharide:horseradish peroxidase conjugate.
Screening experiments. […] The wells were washed with PBS-T after 1 hour incubation at room temperature; followed by development with the TMB-peroxidase substrate kit. The reaction was stopped after 60 min by addition of 1N sulfuric acid (100 μL/well) and optical density was read at 450 nm. Each experiment was conducted twice with each sample in duplicate. […] Microtiter plate wells were coated with recombinant galectin-3 (10 μg/ml, 50 μl/well) from E. coli at 4° C. overnight, then washed three times with PBS-T. The wells were blocked with PBSA-T (100 μl/well) for 1 hour at room temperature, followed by washing with PBS-T. To the first well was added 125 μL of inhibitors 16, 18–19and 25 (0.2 mM in PBS-T). A five-fold serial dilution was performed by transfering 25 μL from the first well to a second well containing 100 μL PBS-T, mixing, then transfering 25 μL from the second well to a third well also containing 100 μL PBS-T, and so on to the eight well from which 25 μL were discarded. The dilution series was done in duplicate. […] Incubation, washing, and detection was performed as described above. The data was analyzed with non-linear regression analysis using the program Kaleidagraph™ from Synergy Software.

Another assay has as its system galectins. To be noted: cited from earlier work.

T1 sequence (P17931 whole entry): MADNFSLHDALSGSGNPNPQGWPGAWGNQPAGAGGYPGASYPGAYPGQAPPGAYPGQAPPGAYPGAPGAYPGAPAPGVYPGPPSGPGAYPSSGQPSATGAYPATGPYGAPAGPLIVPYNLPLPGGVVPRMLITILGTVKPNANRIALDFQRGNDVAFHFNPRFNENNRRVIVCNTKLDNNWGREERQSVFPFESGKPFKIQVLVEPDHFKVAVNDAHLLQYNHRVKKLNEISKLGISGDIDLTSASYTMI

On to `CO[C@@H]1O[C@H](CO)[C@@H](O[C@@H]2O[C@H](CO)[C@H](O)[C@H](NC(=O)c3ccccc3)[C@H]2O)[C@H](O)[C@H]1NC(C)=O` [Compound 16, methyl 2-acetamido-2-deoxy-4-O-(3-benzamido-3-deoxy-β-D-galactopyranosyl)-β-D-glucopyranoside], for which, in assay [1], the concentration for half-maximal inhibition (IC50) is 23 µM and the Krel is on record as 9.

For `COc1c(F)c(F)c(C(=O)N[C@H]2[C@@H](O)[C@@H](CO)O[C@@H](O[C@H]3[C@H](O)[C@@H](NC(C)=O)[C@H](OC)O[C@@H]3CO)[C@@H]2O)c(F)c1F` [Compound 18, methyl 2-acetamido-2-deoxy-4-O-(3-[4-methoxy-2,3,5,6-tetrafluorobenzamido]-3-deoxy-β-D-galactopyranosyl)-β-D-glucopyranoside], in assay [1], the IC50 worked out at 4.8 µM and the Krel is reported as 41. As for `CO[C@@H]1O[C@H](CO)[C@@H](O[C@@H]2O[C@H](CO)[C@H](O)[C@H](NC(=O)c3c(F)c(F)c(F)c(F)c3C(=O)O)[C@H]2O)[C@H](O)[C@H]1NC(C)=O` [Compound 19, methyl 2-acetamido-2-deoxy-4-O-(3-[2-carboxy-3,4,5,6-tetrafluorobenzamido]-3-deoxy-β-D-galactopyranosyl)-β-D-glucopyranoside], in assay [1], the half-inhibitory concentration (IC50) was determined as 11.2 µM and the Krel turned out to be 18. Regarding `CO[C@@H]1O[C@H](CO)[C@@H](O[C@@H]2O[C@H](CO)[C@H](O)[C@H](O)[C@H]2O)[C@H](O)[C@H]1NC(C)=O` [Compound 25, methyl 4-O-β-D-galactopyranosyl-2-acetamido-2-deoxy-β-D-glucopyranoside, reference compound], the inhibition at 40 µM in assay [1] (40 μM inhibitor concentration, screening experiment, read-out: Percent inhibition of Galα3Galβ4GlcNAcβ:HRP conjugate binding to galectin-3) is 13%. In assay [1], the concentration for half-maximal inhibition (IC50) was 199 µM and the Krel amounted to 1.

For the compound `O=C[C@H](O)[C@@H](O)[C@@H](O)[C@H](O)CO` [D-galactose], the “affinity relative to lactose (times lower)” value in the assay with galectins (galectins, compared with lactose) is reported as 50–100 times lower. `OC[C@H]1O[C@@H](O[C@H]2[C@H](O)[C@@H](O)C(O)O[C@@H]2CO)[C@H](O)[C@@H](O)[C@H]1O` (some centres unmarked) [lactose]: on galectins (all galectins), the Kd is 500 to 1000 µM.
